Data published in patent publication US12421191B2, “3-hydroxyoxindole derivatives as CRHR2 antagonist” (RaQualia Pharma Inc., priority 2020, dated 2025).

Target: T1, human CRHR2-alpha (Homo sapiens, UniProt Q13324)
T1 construct: host or cells: CHO-K1
T1 sequence (Q13324 1-411): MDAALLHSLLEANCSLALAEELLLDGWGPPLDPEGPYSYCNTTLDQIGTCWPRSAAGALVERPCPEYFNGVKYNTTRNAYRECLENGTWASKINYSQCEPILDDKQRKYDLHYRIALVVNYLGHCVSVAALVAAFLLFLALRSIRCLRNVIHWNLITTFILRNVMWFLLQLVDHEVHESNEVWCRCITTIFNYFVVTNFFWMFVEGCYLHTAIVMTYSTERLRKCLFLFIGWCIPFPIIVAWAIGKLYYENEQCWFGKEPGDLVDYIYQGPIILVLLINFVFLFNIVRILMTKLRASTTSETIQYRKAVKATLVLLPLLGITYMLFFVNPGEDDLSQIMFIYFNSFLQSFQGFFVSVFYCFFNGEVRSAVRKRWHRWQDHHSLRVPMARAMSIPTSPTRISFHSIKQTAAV
Experiment: cAMP functional assay for human CRHR2 (LANCE Ultra TR-FRET)
Format: cell-based
Conditions: inhibition of cAMP production in CHO-K1 cells stably expressing human CRHR2-alpha, EC90 of human urocortin2 as agonist; read-out: IC50 against CRHR2
Protocol: cAMP functional assay for human CRHR2 The ability of the compounds of this invention to inhibit either CRHR2 is assessed by 3′,5′-cyclic adenosine monophosphate (cAMP) production in cells using the LANCE Ultra cAMP assay kit (ParkinElmer), which are designed based on the homogeneous time-resolved fluorescence resonance energy transfer (TR-FRET) immunoassay.
CHO-K1 (Chinese hamster ovary) cells stably expressing human CRHR2-alpha (DiscoveRX, Cat. 95-0048C2) are grown in HAM's F12 media supplemented with 10% fetal bovine serum (FBS), 100 units/mL penicillin G, 100 microg/mL hygromycin and 0.5 microg/mL geneticin at 37° C. in 5% CO2 humidified incubator to 80% confluence. After 7 hours starvation treatment in culture media containing 0.1% FBS, the cells are washed with Hanks balanced salt solution (HBSS) and cryopreserved.
For cAMP assay, frozen cells are thawed and washed with HBSS, followed by resuspending cells in assay buffer (HBSS containing 0.1% bovine serum albumin, 0.5 mM isobutylmethylxanthine and 5 mM Hepes, pH 7.4) at the appropriate concentration for the assay. The cell suspensions are plated on 384-well microplates (Greiner Bio-One) at a density of 4,000 cells per well. After preincubating the cells with various concentrations of the compounds for 30 min at 25° C., an assay buffer containing EC90 concentration of agonist is added and the cells are incubated for 30 min at 25° C. Human urocortin2 (Peptide Institute) is used as agonists for CRHR2. For the termination of assay, europium-labeled cAMP tracer and ULight (registered trademark) dye labeled cAMP antibodies, both prepared with Lance-Ultra cAMP detection reagent (PerkinElmer) are added in the plate and incubate for 60 min at 25° C. After incubation, TR-FRET signal is detected by EnVision plate reader (PerkinElmer). The IC50 values for compounds are calculated from dose-response curves by fitting the percent inhibition using XLfit (ID Business Solutions).

How did the IC50 turn out when `COc1cccc(C2(O)C(=O)N(C[C@H]3CC[C@H](NC(=O)c4cc(Cl)cnc4C(F)F)CC3)c3ccccc32)c1F` (some centres unmarked) [Example 66, 5-chloro-2-(difluoromethyl)-N-((1r,4r)-4-((3-(2-fluoro-3-methoxyphenyl)-3-hydroxy-2-oxoindolin-1-yl)methyl)cyclohexyl) nicotinamide] was run?
The IC50 was < 200 nM.

How did the IC50 turn out when `O=C(N[C@H]1CC[C@H](CN2C(=O)C(O)(c3cccc(Cl)c3F)c3ccccc32)CC1)c1cc(Cl)cnc1C(F)F` (some centres unmarked) [Example 67, 5-chloro-N-((1r,4r)-4-((3-(3-chloro-2-fluorophenyl)-3-hydroxy-2-oxoindolin-1-yl)methyl)cyclohexyl)-2-(difluoromethyl)nicotinamide] was run?
The IC50 was < 200 nM.

Which IC50 does the source give for `COc1ccc(F)c(C2(O)C(=O)N(C[C@H]3CC[C@H](NC(=O)c4cc(Cl)cnc4C(F)F)CC3)c3ccccc32)c1` (some centres unmarked) [Example 74, 5-chloro-2-(difluoromethyl)-N-((1r,4r)-4-((3-(2-fluoro-5-methoxyphenyl)-3-hydroxy-2-oxoindolin-1-yl)methyl)cyclohexyl) nicotinamide] here?
The IC50 was < 200 nM.

Which IC50 does the source give for `O=C(N[C@H]1CC[C@H](CN2C(=O)C(O)(c3ccc(F)cn3)c3ccc(F)cc32)CC1)c1cc(Cl)cnc1C(F)F` (some centres unmarked) [Example 79, 5-chloro-2-(difluoromethyl)-N-((1r,4r)-4-((6-fluoro-3-(5-fluoropyridin-2-yl)-3-hydroxy-2-oxoindolin-1-yl)methyl)cyclohexyl) nicotinamide] here?
The IC50 was < 200 nM.

Which IC50 does the source give for `O=C(N[C@H]1CC[C@H](CN2C(=O)C(O)(c3ccccc3F)c3ccc(F)cc32)CC1)c1cc(Cl)cnc1C(F)F` (some centres unmarked) [Example 83, 5-chloro-2-(difluoromethyl)-N-((1r,4r)-4-((6-fluoro-3-(2-fluorophenyl)-3-hydroxy-2-oxoindolin-1-yl)methyl)cyclohexyl) nicotinamide] here?
The IC50 was < 200 nM.

How did the IC50 turn out when `O=C(N[C@H]1CC[C@H](CN2C(=O)C(O)(c3ccncc3F)c3ccc(F)cc32)CC1)c1cc(Cl)cnc1C(F)F` (some centres unmarked) [Example 85, 5-chloro-2-(difluoromethyl)-N-((1r,4r)-4-((6-fluoro-3-(3-fluoropyridin-4-yl)-3-hydroxy-2-oxoindolin-1-yl)methyl)cyclohexyl) nicotinamide] was run?
The IC50 was < 200 nM.

`O=C(N[C@H]1CC[C@H](CN2C(=O)C(O)(c3ccsc3)c3ccccc32)CC1)c1cc(Cl)cnc1C(F)F` (some centres unmarked) [Example 92, 5-chloro-2-(difluoromethyl)-N-((1r,4r)-4-((3-hydroxy-2-oxo-3-(thiophen-3-yl)indolin-1-yl)methyl)cyclohexyl) nicotinamide] was tested. Which IC50 did it give?
The IC50 was < 200 nM.

For `O=C(N[C@H]1CC[C@H](CN2C(=O)C(O)(c3ccccc3F)c3cc(F)ccc32)CC1)c1cc(Cl)cnc1C(F)F` (some centres unmarked) [Example 93, 5-chloro-2-(difluoromethyl)-N-((1r,4r)-4-((5-fluoro-3-(2-fluorophenyl)-3-hydroxy-2-oxoindolin-1-yl)methyl)cyclohexyl) nicotinamide], which IC50 is on record?
The IC50 was < 200 nM.

Which IC50 does the source give for `O=C(N[C@H]1CC[C@H](CN2C(=O)C(O)(c3ccccc3F)c3cccnc32)CC1)c1cc(Cl)cnc1C(F)F` (some centres unmarked) [Example 94, 5-chloro-2-(difluoromethyl)-N-((1r,4r)-4-((3-(2-fluorophenyl)-3-hydroxy-2-oxo-2,3-dihydro-1H-pyrrolo[2,3-b]pyridin-1-yl)methyl)cyclohexyl) nicotinamide] here?
Its IC50 is < 200 nM.

`O=C(N[C@H]1CC[C@H](CN2C(=O)C(O)(c3sccc3F)c3ccccc32)CC1)c1cc(Cl)cnc1C(F)F` (some centres unmarked) [Example 95, 5-chloro-2-(difluoromethyl)-N-((1r,4r)-4-((3-(3-fluorothiophen-2-yl)-3-hydroxy-2-oxoindolin-1-yl)methyl)cyclohexyl) nicotinamide] was tested. Which IC50 did it give?
The IC50 was < 200 nM.

How did the IC50 turn out when `O=C(N[C@H]1CC[C@H](CN2C(=O)C(O)(c3cc(F)cs3)c3ccccc32)CC1)c1cc(Cl)cnc1C(F)F` (some centres unmarked) [Example 98, 5-chloro-2-(difluoromethyl)-N-((1r,4r)-4-((3-(4-fluorothiophen-2-yl)-3-hydroxy-2-oxoindolin-1-yl)methyl)cyclohexyl) nicotinamide] was run?
Its IC50 is < 200 nM.

How did the IC50 turn out when `COc1ccc(C2(O)C(=O)N(C[C@H]3CC[C@H](NC(=O)c4cc(Cl)cnc4C(F)F)CC3)c3ccccc32)s1` (some centres unmarked) [Example 99, 5-chloro-2-(difluoromethyl)-N-((1r,4r)-4-((3-hydroxy-3-(5-methoxythiophen-2-yl)-2-oxoindolin-1-yl)methyl)cyclohexyl) nicotinamide] was run?
The IC50 was < 200 nM.

For `COc1ccc2c(c1)N(C[C@H]1CC[C@H](NC(=O)c3cc(Cl)cnc3C(F)F)CC1)C(=O)C2(O)c1ccccc1F` (some centres unmarked) [Example 105, 5-chloro-2-(difluoromethyl)-N-((1r,4r)-4-((3-(2-fluorophenyl)-3-hydroxy-6-methoxy-2-oxoindolin-1-yl)methyl)cyclohexyl) nicotinamide], which IC50 is on record?
The IC50 was < 200 nM.

`O=C(N[C@H]1CC[C@H](CN2C(=O)C(O)(c3cccc(F)c3F)c3ccccc32)CC1)c1cc(Cl)cnc1C(F)(F)F` (some centres unmarked) [Example 113, 5-chloro-N-((1r,4r)-4-((3-(2,3-difluorophenyl)-3-hydroxy-2-oxoindolin-1-yl)methyl)cyclohexyl)-2-(trifluoromethyl)nicotinamide] was tested. Which IC50 did it give?
The IC50 was < 200 nM.

Which IC50 does the source give for `COc1cc(C2(O)C(=O)N(C[C@H]3CC[C@H](NC(=O)c4cc(Cl)cnc4C(F)F)CC3)c3cc(F)ccc32)c(F)cn1` (some centres unmarked) [Example 115, 5-chloro-2-(difluoromethyl)-N-((1r,4r)-4-((6-fluoro-3-(5-fluoro-2-methoxypyridin-4-yl)-3-hydroxy-2-oxoindolin-1-yl)methyl)cyclohexyl) nicotinamide] here?
Its IC50 is < 200 nM.

With `O=C(N[C@H]1CC[C@H](CN2C(=O)C(O)(c3cccc(F)c3F)c3ccc(F)cc32)CC1)c1cc(Cl)cnc1C(F)F` (some centres unmarked) [Example 116, 5-chloro-2-(difluoromethyl)-N-((1r,4r)-4-((3-(2,3-difluorophenyl)-6-fluoro-3-hydroxy-2-oxoindolin-1-yl)methyl)cyclohexyl) nicotinamide] as the compound, how does the IC50 read?
The IC50 was < 200 nM.

For `O=C(N[C@H]1CC[C@H](CN2C(=O)C(O)(c3cccc(Cl)c3F)c3ccc(F)cc32)CC1)c1cc(Cl)cnc1C(F)F` (some centres unmarked) [Example 117, 5-chloro-N-((1r,4r)-4-((3-(3-chloro-2-fluorophenyl)-6-fluoro-3-hydroxy-2-oxoindolin-1-yl)methyl)cyclohexyl)-2-(difluoromethyl)nicotinamide], which IC50 is on record?
The IC50 was < 200 nM.

With `O=C(N[C@H]1CC[C@H](CN2C(=O)C(O)(c3cc(F)ccc3F)c3ccc(F)cc32)CC1)c1cc(Cl)cnc1C(F)F` (some centres unmarked) [Example 118, 5-chloro-2-(difluoromethyl)-N-((1r,4r)-4-((3-(2,5-difluorophenyl)-6-fluoro-3-hydroxy-2-oxoindolin-1-yl)methyl)cyclohexyl)nicotinamide] as the compound, how does the IC50 read?
Its IC50 is < 200 nM.

With `O=C(N[C@H]1CC[C@H](CN2C(=O)C(O)(c3ccc(Cl)cn3)c3ccc(F)cc32)CC1)c1cc(Cl)cnc1C(F)F` (some centres unmarked) [Example 119, 5-chloro-N-((1r,4r)-4-((3-(5-chloropyridin-2-yl)-6-fluoro-3-hydroxy-2-oxoindolin-1-yl)methyl)cyclohexyl)-2-(difluoromethyl)nicotinamide] as the compound, how does the IC50 read?
Its IC50 is < 200 nM.

Which IC50 does the source give for `O=C(N[C@H]1CC[C@H](CN2C(=O)C(O)(c3cccc(F)c3F)c3cc(F)ccc32)CC1)c1cc(Cl)cnc1C(F)F` (some centres unmarked) [Example 123, 5-chloro-2-(difluoromethyl)-N-((1r,4r)-4-((3-(2,3-difluorophenyl)-5-fluoro-3-hydroxy-2-oxoindolin-1-yl)methyl)cyclohexyl) nicotinamide] here?
Its IC50 is < 200 nM.
